Results as given in patent US8426202B2, “Cell culture medium” (Cellca GmbH, priority 2005, dated 2013).
Several values for one entry are separate records, joined by “and”; a condition that tells them apart may be missing. Equal values may be shown once.

Tests used:
[1] = tested on: CHO cell line that expresses an antibody; assay: Fed-batch experiment with the substances according to the invention (Example 2, Table 2); format: cell-based, Chinese hamster; design: Viabil.: concentration or dose not given beside the values
From the text: (§1) Feed took place at regular intervals.

[2] = tested on: CHO cell line that expresses an antibody; assay: Batch experiment with the substances according to the invention (Example 1); format: cell-based, Chinese hamster; settings: batch mode, substance 0.5-1 g/l, basal medium glucose 4.7 g/l, glutamine […]
Experimental: Cells were stored in the gas phase of liquid nitrogen. One to two ampoules were thawed in nutrient medium preheated to 37° C. and transferred to spinner bottles, shaking flasks or T-bottles. In the first few days of cultivation the medium was changed, depending on the clone.
Depending on the clone, cells were split either every second day or every third day or after two and three days alternately into new medium, i.e. a portion of the cell suspension was removed from culture and a smaller portion of the cell suspension was reused as inoculum for the next culture. This inoculum was made up with fresh prewarmed nutrient medium. Cells were incubated at 37° C. in an incubator with a CO2 atmosphere. An alternative for incubating cells was cultivation in an incubation chamber at 37° C., in this way cells were held in culture for several passages. A passage means a cultivation time of two to three days. At various points of time, cell suspension was taken from strain maintenance and used as inoculum for experiments. The experiments were carried out in various cultivation systems, for example in spinner bottles, T-bottles, shaking flasks, culture tubes or in controlled bioreactors.
as §1

O=C(O)CCCCC(=O)O [Adipic acid]
Total Cell Density TCD ([1]; day 0, fed-batch): 1.5 E5/ml | Viabil. ([1]; day 0, fed-batch): 91% | Viable Cell Density (VCD) ([1]; day 0, fed-batch): 1.37 E5/ml | Total Cell Density TCD ([1]; day 2, fed-batch): 4.4 E5/ml | Viabil. ([1]; day 2, fed-batch): 98% | Viable Cell Density (VCD) ([1]; day 2, fed-batch): 4.3 E5/ml | Total Cell Density TCD ([1]; day 5, fed-batch): 12 E5/ml and 11.8 E5/ml | Viabil. ([1]; day 5, fed-batch): 98% and 95% | Viable Cell Density (VCD) ([1]; day 5, fed-batch): 11.7 E5/ml and 11.2 E5/ml | Total Cell Density TCD ([1]; day 8, fed-batch): 40 E5/ml and 36.3 E5/ml | Viabil. ([1]; day 8, fed-batch): 91% and 92% | Gln ([2]; day 0): 1.53 mM | Glucose ([2]; day 0): 4.69 g/L | Lactate ([2]; day 0): 0 g/L | NH4 ([2]; day 0): 1.22 mM | Specific Glutamin consumption (Gln/VCD) ([2]; day 0): 1.49 | Specific ammonia production (NH4/VCD) ([2]; day 0): 1.18 | Specific glucose consumption (Gluc/VCD) ([2]; day 0): 4.55 | Specific lactate production (Lac/VCD) ([2]; day 0): 0.00 | Total Cell Density TCD ([2]; day 0): 1.07 E5/ml | Viabil. ([2]; day 0): 96% | Viable Cell Density (VCD) ([2]; day 0): 1.03 E5/ml | Gln ([2]; day 3): 0.86 mM | Glucose ([2]; day 3): 4.28 g/L | Lactate ([2]; day 3): 0.62 g/L | NH4 ([2]; day 3): 1.81 mM | Specific Glutamin consumption (Gln/VCD) ([2]; day 3): 0.12 | Specific ammonia production (NH4/VCD) ([2]; day 3): 0.25 | Specific glucose consumption (Gluc/VCD) ([2]; day 3): 0.60 | Specific lactate production (Lac/VCD) ([2]; day 3): 0.09 | Total Cell Density TCD ([2]; day 3): 7.2 E5/ml | Viabil. ([2]; day 3): 99% | Viable Cell Density (VCD) ([2]; day 3): 7.1 E5/ml | Gln ([2]; day 6): 0.22 mM | Glucose ([2]; day 6): 2.95 g/L | Lactate ([2]; day 6): 0.93 g/L | NH4 ([2]; day 6): 2.67 mM | Specific Glutamin consumption (Gln/VCD) ([2]; day 6): 0.01 | Specific ammonia production (NH4/VCD) ([2]; day 6): 0.07 | Specific glucose consumption (Gluc/VCD) ([2]; day 6): 0.07 | Specific lactate production (Lac/VCD) ([2]; day 6): 0.02 | Total Cell Density TCD ([2]; day 6): 41.6 E5/ml | Viabil. ([2]; day 6): 98% | Viable Cell Density (VCD) ([2]; day 6): 40.6 E5/ml | Gln ([2]; day 8): 0.32 mM | Glucose ([2]; day 8): 1.94 g/L | Lactate ([2]; day 8): 0.95 g/L | NH4 ([2]; day 8): 3 mM | Specific Glutamin consumption (Gln/VCD) ([2]; day 8): 0.02 | Specific ammonia production (NH4/VCD) ([2]; day 8): 0.20 | Specific glucose consumption (Gluc/VCD) ([2]; day 8): 0.13 | Specific lactate production (Lac/VCD) ([2]; day 8): 0.06 | Total Cell Density TCD ([2]; day 8): 17.1 E5/ml | Viabil. ([2]; day 8): 87% | Viable Cell Density (VCD) ([2]; day 8): 14.9 E5/ml | Gln ([2]; day 11): 0.49 mM | Glucose ([2]; day 11): 0.89 g/L | Lactate ([2]; day 11): 1.28 g/L | NH4 ([2]; day 11): 3.38 mM | Specific Glutamin consumption (Gln/VCD) ([2]; day 11): 0.05 | Specific ammonia production (NH4/VCD) ([2]; day 11): 0.32 | Specific glucose consumption (Gluc/VCD) ([2]; day 11): 0.08 | Specific lactate production (Lac/VCD) ([2]; day 11): 0.12 | Total Cell Density TCD ([2]; day 11): 23 E5/ml | Viabil. ([2]; day 11): 46% | Viable Cell Density (VCD) ([2]; day 11): 10.6 E5/ml

NC(=O)NCCC[C@H](N)C(=O)O [Citrulline]
Gln ([2]; day 0): 1.53 mM | Glucose ([2]; day 0): 4.69 g/L | Lactate ([2]; day 0): 0 g/L | NH4 ([2]; day 0): 1.22 mM | Specific Glutamin consumption (Gln/VCD) ([2]; day 0): 1.49 | Specific ammonia production (NH4/VCD) ([2]; day 0): 1.18 | Specific glucose consumption (Gluc/VCD) ([2]; day 0): 4.55 | Specific lactate production (Lac/VCD) ([2]; day 0): 0.00 | Total Cell Density TCD ([2]; day 0): 1.07 E5/ml | Viabil. ([2]; day 0): 96% | Viable Cell Density (VCD) ([2]; day 0): 1.03 E5/ml | Gln ([2]; day 3): 0.82 mM | Glucose ([2]; day 3): 4.14 g/L | Lactate ([2]; day 3): 0.83 g/L | NH4 ([2]; day 3): 1.87 mM | Specific Glutamin consumption (Gln/VCD) ([2]; day 3): 0.11 | Specific ammonia production (NH4/VCD) ([2]; day 3): 0.25 | Specific glucose consumption (Gluc/VCD) ([2]; day 3): 0.55 | Specific lactate production (Lac/VCD) ([2]; day 3): 0.11 | Total Cell Density TCD ([2]; day 3): 7.7 E5/ml | Viabil. ([2]; day 3): 97% | Viable Cell Density (VCD) ([2]; day 3): 7.5 E5/ml | Gln ([2]; day 6): 0.27 mM | Glucose ([2]; day 6): 2.62 g/L | Lactate ([2]; day 6): 1.16 g/L | NH4 ([2]; day 6): 2.66 mM | Specific Glutamin consumption (Gln/VCD) ([2]; day 6): 0.01 | Specific ammonia production (NH4/VCD) ([2]; day 6): 0.07 | Specific glucose consumption (Gluc/VCD) ([2]; day 6): 0.07 | Specific lactate production (Lac/VCD) ([2]; day 6): 0.03 | Total Cell Density TCD ([2]; day 6): 39.6 E5/ml | Viabil. ([2]; day 6): 96% | Viable Cell Density (VCD) ([2]; day 6): 37.9 E5/ml | Gln ([2]; day 8): 0.37 mM | Glucose ([2]; day 8): 1.7 g/L | Lactate ([2]; day 8): 1.12 g/L | NH4 ([2]; day 8): 2.86 mM | Specific Glutamin consumption (Gln/VCD) ([2]; day 8): 0.03 | Specific ammonia production (NH4/VCD) ([2]; day 8): 0.20 | Specific glucose consumption (Gluc/VCD) ([2]; day 8): 0.12 | Specific lactate production (Lac/VCD) ([2]; day 8): 0.08 | Total Cell Density TCD ([2]; day 8): 17.8 E5/ml | Viabil. ([2]; day 8): 82% | Viable Cell Density (VCD) ([2]; day 8): 14.6 E5/ml | Gln ([2]; day 11): 0.51 mM | Glucose ([2]; day 11): 0.7 g/L | Lactate ([2]; day 11): 1.48 g/L | NH4 ([2]; day 11): 3.26 mM | Specific Glutamin consumption (Gln/VCD) ([2]; day 11): 0.06 | Specific ammonia production (NH4/VCD) ([2]; day 11): 0.40 | Specific glucose consumption (Gluc/VCD) ([2]; day 11): 0.09 | Specific lactate production (Lac/VCD) ([2]; day 11): 0.18 | Total Cell Density TCD ([2]; day 11): 21.3 E5/ml | Viabil. ([2]; day 11): 38% | Viable Cell Density (VCD) ([2]; day 11): 8.2 E5/ml

O=C(O)CC(O)C(=O)O (centres unmarked) [Malic acid]
Total Cell Density TCD ([1]; day 0, fed-batch): 1.5 E5/ml | Viabil. ([1]; day 0, fed-batch): 91% | Viable Cell Density (VCD) ([1]; day 0, fed-batch): 1.37 E5/ml | Total Cell Density TCD ([1]; day 2, fed-batch): 3.9 E5/ml and 4.2 E5/ml | Viabil. ([1]; day 2, fed-batch): 97% and 98% | Viable Cell Density (VCD) ([1]; day 2, fed-batch): 3.8 E5/ml and 4.1 E5/ml | Total Cell Density TCD ([1]; day 5, fed-batch): 14.1 E5/ml and 12.8 E5/ml | Viabil. ([1]; day 5, fed-batch): 97% and 98% | Viable Cell Density (VCD) ([1]; day 5, fed-batch): 13.7 E5/ml and 12.5 E5/ml | Total Cell Density TCD ([1]; day 8, fed-batch): 49.1 E5/ml and 45.3 E5/ml | Viabil. ([1]; day 8, fed-batch): 91% and 92% | Viable Cell Density (VCD) ([1]; day 8, fed-batch): 44.9 E5/ml and 41.6 E5/ml | Gln ([2]; day 0): 1.53 mM | Glucose ([2]; day 0): 4.69 g/L | Lactate ([2]; day 0): 0 g/L | NH4 ([2]; day 0): 1.22 mM | Specific Glutamin consumption (Gln/VCD) ([2]; day 0): 1.49 | Specific ammonia production (NH4/VCD) ([2]; day 0): 1.18 | Specific glucose consumption (Gluc/VCD) ([2]; day 0): 4.55 | Specific lactate production (Lac/VCD) ([2]; day 0): 0.00 | Total Cell Density TCD ([2]; day 0): 1.07 E5/ml | Viabil. ([2]; day 0): 96% | Viable Cell Density (VCD) ([2]; day 0): 1.03 E5/ml | Gln ([2]; day 3): 0.67 mM | Glucose ([2]; day 3): 3.9 g/L | Lactate ([2]; day 3): 0.85 g/L | NH4 ([2]; day 3): 1.9 mM | Specific Glutamin consumption (Gln/VCD) ([2]; day 3): 0.09 | Specific ammonia production (NH4/VCD) ([2]; day 3): 0.25 | Specific glucose consumption (Gluc/VCD) ([2]; day 3): 0.51 | Specific lactate production (Lac/VCD) ([2]; day 3): 0.11 | Total Cell Density TCD ([2]; day 3): 7.8 E5/ml | Viabil. ([2]; day 3): 97% | Viable Cell Density (VCD) ([2]; day 3): 7.6 E5/ml | Gln ([2]; day 6): 0.28 mM | Glucose ([2]; day 6): 2.65 g/L | Lactate ([2]; day 6): 1.14 g/L | NH4 ([2]; day 6): 2.42 mM | Specific Glutamin consumption (Gln/VCD) ([2]; day 6): 0.01 | Specific ammonia production (NH4/VCD) ([2]; day 6): 0.06 | Specific glucose consumption (Gluc/VCD) ([2]; day 6): 0.06 | Specific lactate production (Lac/VCD) ([2]; day 6): 0.03 | Total Cell Density TCD ([2]; day 6): 43.4 E5/ml | Viabil. ([2]; day 6): 97% | Viable Cell Density (VCD) ([2]; day 6): 42.2 E5/ml | Gln ([2]; day 8): 0.37 mM | Glucose ([2]; day 8): 1.76 g/L | Lactate ([2]; day 8): 0.94 g/L | NH4 ([2]; day 8): 2.4 mM | Specific Glutamin consumption (Gln/VCD) ([2]; day 8): 0.02 | Specific ammonia production (NH4/VCD) ([2]; day 8): 0.10 | Specific glucose consumption (Gluc/VCD) ([2]; day 8): 0.08 | Specific lactate production (Lac/VCD) ([2]; day 8): 0.04 | Total Cell Density TCD ([2]; day 8): 26.1 E5/ml | Viabil. ([2]; day 8): 89% | Viable Cell Density (VCD) ([2]; day 8): 23.2 E5/ml | Gln ([2]; day 11): 0.44 mM | Glucose ([2]; day 11): 0.47 g/L | Lactate ([2]; day 11): 1.2 g/L | NH4 ([2]; day 11): 2.75 mM | Specific Glutamin consumption (Gln/VCD) ([2]; day 11): 0.03 | Specific ammonia production (NH4/VCD) ([2]; day 11): 0.16 | Specific glucose consumption (Gluc/VCD) ([2]; day 11): 0.03 | Specific lactate production (Lac/VCD) ([2]; day 11): 0.07 | Total Cell Density TCD ([2]; day 11): 28.5 E5/ml | Viabil. ([2]; day 11): 61% | Viable Cell Density (VCD) ([2]; day 11): 17.5 E5/ml
